Test results reported in PubChem BioAssay AID256 (DTP/NCI, 2004).
Several values for one entry are separate records, joined by “and”; a condition that tells them apart may be missing. Equal values may be shown once. Inconclusive results and toxic doses are left out. The calls were made as follows: active = survival T/C of 150% or more; inactive = T/C below 125% in these data.

System: CD2F1 mice, L1210 leukemia ip, survival T/C
Test: NCI In Vivo Anticancer Drug Screen. Data for tumor model L1210 Leukemia (intraperitoneal) in CD2F1 (CDF1) mice
Conditions: higher = longer survival
How it was run: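 Each value reflects a quotient of treated over vehicle control outcomes in mice with a transplanted tumor.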

[1] = endpoint: mean survival time, dose: 100.0 mg/kg/injection, schedule: Q04DX003 (ip), vehicle: saline with Tween-80
[2] = endpoint: mean survival time, dose: 100.0 mg/kg/injection, schedule: Q01DX009 (ip), vehicle: saline with Tween-80
[3] = endpoint: mean survival time, dose: 200.0 mg/kg/injection, schedule: Q01DX009 (ip), vehicle: saline with Tween-80
[4] = endpoint: mean survival time, dose: 400.0 mg/kg/injection, schedule: Q01DX009 (ip), vehicle: saline with Tween-80
[5] = endpoint: mean survival time, dose: 200.0 mg/kg/injection, schedule: Q04DX003 (ip), vehicle: saline with Tween-80
[6] = endpoint: mean survival time, dose: 400.0 mg/kg/injection, schedule: Q04DX003 (ip), vehicle: saline with Tween-80
[7] = endpoint: mean survival time, dose: 100.0 mg/kg/injection, schedule: Q04DX003 (ip), vehicle: saline
[8] = endpoint: mean survival time, dose: 200.0 mg/kg/injection, schedule: Q04DX003 (ip), vehicle: saline
[9] = endpoint: mean survival time, dose: 400.0 mg/kg/injection, schedule: Q04DX003 (ip), vehicle: saline
[10] = endpoint: mean survival time, dose: 100.0 mg/kg/injection, schedule: Q04DX002 (ip), vehicle: saline with Tween-80
[11] = endpoint: mean survival time, dose: 400.0 mg/kg/injection, schedule: Q04DX002 (ip), vehicle: saline with Tween-80
[12] = endpoint: mean survival time, dose: 100.0 mg/kg/injection, schedule: Q01DX001 (ip), vehicle: saline with Tween-80
[13] = endpoint: mean survival time, dose: 200.0 mg/kg/injection, schedule: Q01DX001 (ip), vehicle: saline with Tween-80
[14] = endpoint: mean survival time, dose: 400.0 mg/kg/injection, schedule: Q01DX001 (ip), vehicle: saline with Tween-80

Measured: T/C

CC/C=C(\C)C=O
inactive: endpoint: mean survival time, dose: 100.0 mg/kg/injection, schedule: Q01DX001 (ip), vehicle: saline 100 % of control | endpoint: mean survival time, dose: 200.0 mg/kg/injection, schedule: Q01DX001 (ip), vehicle: saline 97 % of control | endpoint: mean survival time, dose: 400.0 mg/kg/injection, schedule: Q01DX001 (ip), vehicle: saline 97 % of control

CCCCC1C/C=C/C=C/C=C/C=C/C(OC2OC(C)C(O)C(N)C2O)CC2OC(O)(CC(O)CC3OC3/C=C/C(=O)O1)CC(O)C2C(=O)O (stereo not drawn)
inactive: endpoint: mean survival time, dose: 3.5 mg/kg/injection, schedule: Q01DX009 (ip), vehicle: saline sonified 104 % of control | endpoint: mean survival time, dose: 3.5 mg/kg/injection, schedule: Q04DX003 (ip), vehicle: saline sonified 91 % of control | endpoint: mean survival time, dose: 7.0 mg/kg/injection, schedule: Q01DX009 (ip), vehicle: saline sonified 101 % of control | endpoint: mean survival time, dose: 7.0 mg/kg/injection, schedule: Q04DX003 (ip), vehicle: saline sonified 93 % of control | endpoint: mean survival time, dose: 14.0 mg/kg/injection, schedule: Q01DX009 (ip), vehicle: saline sonified 87 % of control | endpoint: mean survival time, dose: 14.0 mg/kg/injection, schedule: Q04DX003 (ip), vehicle: saline sonified 91 % of control

CN(C)CCNC(=O)C(c1ccccc1)c1ccccc1
inactive: [1] 104 % of control

COC(=O)C(C)CC(C)(C=O)OC (stereo not drawn)
inactive: [2] 102 % of control | [3] 96 % of control | [4] 96 % of control

CN(C)N=Nc1ccc([N+](=O)[O-])cc1C(N)=O
inactive: endpoint: mean survival time, dose: 18.8 mg/kg/injection, schedule: Q01DX009 (ip), vehicle: Klucel (hydroxypropylcellulose) (HPC) 95 % of control and 101 % of control | endpoint: mean survival time, dose: 37.5 mg/kg/injection, schedule: Q01DX009 (ip), vehicle: Klucel (hydroxypropylcellulose) (HPC) 96 % of control and 110 % of control | endpoint: mean survival time, dose: 75.0 mg/kg/injection, schedule: Q01DX009 (ip), vehicle: Klucel (hydroxypropylcellulose) (HPC) 101 % of control and 110 % of control | endpoint: mean survival time, dose: 300.0 mg/kg/injection, schedule: Q01DX009 (ip), vehicle: Klucel (hydroxypropylcellulose) (HPC) 89 % of control

C=CCCCCCCCCC(=O)NCC1CCCCO1 (stereo not drawn)
inactive: [1] 94 % of control | [5] 98 % of control | [6] 93 % of control

COc1ccc(C(=O)O)c(N)c1
inactive: [2] 95 % of control | [1] 94 % of control | [3] 92 % of control | [5] 97 % of control | [4] 101 % of control | [6] 97 % of control

COC(=O)NCCCCl
inactive: endpoint: mean survival time, dose: 37.5 mg/kg/injection, schedule: Q01DX007 (ip), vehicle: saline 94 % of control | endpoint: mean survival time, dose: 75.0 mg/kg/injection, schedule: Q01DX007 (ip), vehicle: saline 103 % of control | endpoint: mean survival time, dose: 150.0 mg/kg/injection, schedule: Q01DX007 (ip), vehicle: saline 97 % of control | endpoint: mean survival time, dose: 300.0 mg/kg/injection, schedule: Q01DX007 (ip), vehicle: saline 94 % of control | endpoint: mean survival time, dose: 600.0 mg/kg/injection, schedule: Q01DX007 (ip), vehicle: saline 94 % of control

O=[N+]([O-])C=C(S)S
inactive: endpoint: mean survival time, dose: 25.0 mg/kg/injection, schedule: Q01DX009 (ip), vehicle: Klucel (hydroxypropylcellulose) (HPC) 111 % of control | endpoint: mean survival time, dose: 50.0 mg/kg/injection, schedule: Q01DX009 (ip), vehicle: Klucel (hydroxypropylcellulose) (HPC) 98 % of control | endpoint: mean survival time, dose: 100.0 mg/kg/injection, schedule: Q01DX009 (ip), vehicle: Klucel (hydroxypropylcellulose) (HPC) 93 % of control | endpoint: mean survival time, dose: 200.0 mg/kg/injection, schedule: Q01DX009 (ip), vehicle: Klucel (hydroxypropylcellulose) (HPC) 90 % of control

CCNc1nc(Cl)nc(NC(C)C)n1
inactive: [2] 93 % of control | [7] 95 % of control | [3] 98 % of control | [8] 101 % of control | [9] 92 % of control

O=C1CCC2(CC1C1C=CCC1)OCCO2 (stereo not drawn)
inactive: [2] 91 % of control | [1] 100 % of control | [3] 94 % of control | [5] 102 % of control | [4] 100 % of control | [6] 98 % of control

NNC(=O)c1ncn(C2OC(CO)C(O)C2O)c1C(=O)NN (stereo not drawn)
inactive: endpoint: mean survival time, dose: 12.5 mg/kg/injection, schedule: Q01DX005 (ip), vehicle: water 103 % of control | endpoint: mean survival time, dose: 25.0 mg/kg/injection, schedule: Q01DX005 (ip), vehicle: water 101 % of control | endpoint: mean survival time, dose: 50.0 mg/kg/injection, schedule: Q01DX005 (ip), vehicle: water 95 % of control | endpoint: mean survival time, dose: 100.0 mg/kg/injection, schedule: Q01DX005 (ip), vehicle: water 103 % of control | endpoint: mean survival time, dose: 200.0 mg/kg/injection, schedule: Q01DX005 (ip), vehicle: water 97 % of control

O=C1Nc2ccccc2/C1=N/N=P(c1ccccc1)(c1ccccc1)c1ccccc1
inactive: endpoint: median survival time, dose: 50.0 mg/kg/injection, schedule: Q04DX002 (ip), vehicle: saline with Tween-80 100 % of control | endpoint: median survival time, dose: 100.0 mg/kg/injection, schedule: Q04DX002 (ip), vehicle: saline with Tween-80 110 % of control | endpoint: median survival time, dose: 200.0 mg/kg/injection, schedule: Q04DX002 (ip), vehicle: saline with Tween-80 100 % of control | endpoint: median survival time, dose: 400.0 mg/kg/injection, schedule: Q04DX002 (ip), vehicle: saline with Tween-80 100 % of control

CC(C)c1cc2c(cc1O)C1(C)CCCC(C)(C(=O)O)C1CC2 (stereo not drawn)
inactive: [2] 98 % of control | [1] 95 % of control | [3] 102 % of control | [5] 96 % of control | [4] 101 % of control | [6] 94 % of control

CC(=O)SCCNCC(C)(C)S
inactive: [7] 98 % of control | [8] 98 % of control | [9] 95 % of control

CSc1nc(N)c2cnn(C3OC(CO)C(O)C3O)c2n1 (stereo not drawn)
inactive: endpoint: median survival time, dose: 8.13 mg/kg/injection, schedule: Q01DX005 (ip), vehicle: saline with Tween-80 100 % of control | endpoint: median survival time, dose: 9.0 mg/kg/injection, schedule: Q01DX005 (ip), vehicle: saline 107 % of control | endpoint: median survival time, dose: 12.5 mg/kg/injection, schedule: Q01DX005 (ip), vehicle: saline with Tween-80 102 % of control | endpoint: median survival time, dose: 16.25 mg/kg/injection, schedule: Q01DX005 (ip), vehicle: saline with Tween-80 97 % of control | endpoint: median survival time, dose: 18.0 mg/kg/injection, schedule: Q01DX005 (ip), vehicle: saline 100 % of control | endpoint: median survival time, dose: 25.0 mg/kg/injection, schedule: Q01DX005 (ip), vehicle: saline with Tween-80 100 % of control | endpoint: median survival time, dose: 32.5 mg/kg/injection, schedule: Q01DX005 (ip), vehicle: saline with Tween-80 101 % of control | endpoint: median survival time, dose: 36.0 mg/kg/injection, schedule: Q01DX005 (ip), vehicle: saline 103 % of control | endpoint: median survival time, dose: 50.0 mg/kg/injection, schedule: Q01DX005 (ip), vehicle: saline with Tween-80 94 % of control | endpoint: median survival time, dose: 65.0 mg/kg/injection, schedule: Q01DX005 (ip), vehicle: saline with Tween-80 100 % of control | endpoint: median survival time, dose: 72.0 mg/kg/injection, schedule: Q01DX005 (ip), vehicle: saline 97 % of control | endpoint: median survival time, dose: 100.0 mg/kg/injection, schedule: Q01DX005 (ip), vehicle: saline with Tween-80 93 % of control | endpoint: median survival time, dose: 130.0 mg/kg/injection, schedule: Q01DX005 (ip), vehicle: saline with Tween-80 101 % of control | endpoint: median survival time, dose: 200.0 mg/kg/injection, schedule: Q01DX005 (ip), vehicle: saline with Tween-80 94 % of control

COc1ccc(NC(=O)Oc2ccc(Cl)cc2Cl)cc1
inactive: endpoint: mean survival time, dose: 25.0 mg/kg/injection, schedule: Q01DX009 (ip), vehicle: saline with Tween-80 112 % of control | endpoint: mean survival time, dose: 25.0 mg/kg/injection, schedule: Q04DX002 (ip), vehicle: saline with Tween-80 100 % of control | endpoint: mean survival time, dose: 50.0 mg/kg/injection, schedule: Q01DX009 (ip), vehicle: saline with Tween-80 112 % of control | endpoint: mean survival time, dose: 50.0 mg/kg/injection, schedule: Q04DX002 (ip), vehicle: saline with Tween-80 100 % of control | [2] 101 % of control | [10] 95 % of control and 98 % of control | [11] 102 % of control

CC(C)(C)CC(C)(C)C1=CC(=O)C(C(C)(C)CC(C)(C)C)=CC1=O
inactive: [12] 91 % of control | [13] 90 % of control | [14] 86 % of control

O=C(O)c1ccc([N+](=O)[O-])cc1[N+](=O)[O-]
inactive: [12] 87 % of control | [13] 97 % of control | [14] 91 % of control

Cc1cc([N+](=O)[O-])c2ccccc2[n+]1[O-]
inactive: [1] 100 % of control

CC1CC(C)(C)N=C(C2(c3ccccc3)CCC2)O1 (stereo not drawn)
inactive: [12] 101 % of control | [10] 101 % of control | [13] 111 % of control | endpoint: mean survival time, dose: 200.0 mg/kg/injection, schedule: Q04DX002 (ip), vehicle: saline with Tween-80 93 % of control | [14] 98 % of control | [11] 93 % of control
